These results are taken from patent publication US20110033946A1, “DETECTION OF SHORT-CHAIN FATTY ACIDS IN BIOLOGICAL SAMPLES” (HEMAQUEST PHARMACEUTICALS, INC., priority 2009, published 2011).

Series [1] is described as follows: Freeze/thaw cycle stability in dog plasma. The series is classed as physicochemical. Particulars: three freeze/thaw cycles at approximately −70° C. The procedure:
For the remaining validation tests, a calibration curve and triplicates QCs at the low, mid and high levels were analyzed with each sample set. The following samples were also analyzed either in conjunction with one of the precision and accuracy runs or in one of the additional validation runs: Samples from six lots of control dog plasma for specificity. Two concentration levels of unextracted QC-samples in triplicate (solvent standards) were analyzed for the evaluation of the recovery of sodium 2,2-dimethylbutyrate and DMV in dog plasma. Two levels of QC samples (Low QC and High QC in triplicate) were subjected to three freeze/thaw cycles at approximately −70° C. prior to extraction to evaluate freeze/thaw stability. Two levels of QC samples (Low QC and High QC in triplicate) were placed on the bench top for approximately 17 hours prior to extraction for the evaluation of the bench top stability. Triplicate low QC samples and triplicate high QC samples were stored for one month and three months in a freezer at approximately −70° C., and then extracted and analyzed to evaluate long term stability in dog plasma. Three aliquots of a dilution QC sample diluted 10-fold.
The stability of sodium 2,2-dimethylbutyrate in dog plasma was evaluated at approximately −70° C. for three cycles using QC-Low and QC-High samples in triplicate. The freeze time was at least 12 hours, with a minimum thaw time of one hour. The CV % values for the QC-Low and QC-High stability samples are 1.4% and 2.8%, respectively. To calculate the RE %, the measured mean concentration was compared to the nominal concentration. The RE % values for the QC-Low and QC-High stability samples are 1.9% and −8.1%, respectively.

The format of series [2] is physicochemical, human. Conditions: for Bench top stability, Mean concentration / Bench top stability, RE % (mean vs nominal): human, 22.5 h. The procedure: The following samples were also analyzed either in conjunction with one of the precision and accuracy runs or in one of the additional validation runs. Samples from six lots of control human plasma for specificity. Samples from six lots of control human plasma fortified with internal standard for specificity. Two concentration levels of unextracted QC-samples in triplicate (solvent standards) were analyzed for the evaluation of the recovery of sodium 2,2-dimethylbutyrate and DMV in human plasma. Two levels of QC samples (Low QC and High QC in triplicate) were subjected to three freeze/thaw cycles at approximately −70° C. prior to extraction to evaluate freeze/thaw stability. […] Triplicate low QC samples and triplicate high QC samples were stored for one month and three months in a freezer at approximately −70° C., and then extracted and analyzed to evaluate long term stability in human plasma. Two levels of extracted QC samples (Low QC and High QC) were re-analyzed after approximately 71 hours in the autosampler at room temperature to evaluate the extract autosampler stability. Two levels of extracted QC samples (Low QC and High QC) were re-analyzed after approximately 8 hours in the freezer at approximately −20° C. to evaluate the extract freeze stability. Three aliquots of a dilution QC sample diluted 10-fold. Triplicate dilutions of the old stock solution (stored at approximately 4° C.) and new stock solutions prepared at intervals of two weeks and one month. Statistical calculations in the report tables were calculated from unrounded concentration values taken directly from the raw data. The concentration values were rounded for display purposes.
Triplicate QC-Low and QC-High samples were extracted and analyzed after these storage conditions. The CV % values for the QC-Low and QC-High stability samples are 7.8% and 2.9%, respectively. To calculate the RE %, the measured mean concentration was compared to the nominal concentration. The RE % values for the QC-Low and QC-High stability samples are 11.8% and −3.4%, respectively.

Series [3] can be described thus: Extract autosampler stability (human plasma extract). Conditions: for Extract autosampler stability, Mean concentration / Extract autosampler stability, RE % (mean vs nominal) / Extract autosampler stability, concentration found (replicate): at least 71 hours in autosampler, ambient. Format: physicochemical. The procedure:
The following samples were also analyzed either in conjunction with one of the precision and accuracy runs or in one of the additional validation runs. Samples from six lots of control human plasma for specificity. Samples from six lots of control human plasma fortified with internal standard for specificity. Two concentration levels of unextracted QC-samples in triplicate (solvent standards) were analyzed for the evaluation of the recovery of sodium 2,2-dimethylbutyrate and DMV in human plasma. Two levels of QC samples (Low QC and High QC in triplicate) were subjected to three freeze/thaw cycles at approximately −70° C. prior to extraction to evaluate freeze/thaw stability. Two levels of QC samples (Low QC and High QC in triplicate) were placed on the bench top for approximately 17 hours prior to extraction for the evaluation of the bench top stability. Triplicate low QC samples and triplicate high QC samples were stored for one month and three months in a freezer at approximately −70° C., and then extracted and analyzed to evaluate long term stability in human plasma. Two levels of extracted QC samples (Low QC and High QC) were re-analyzed after approximately 71 hours in the autosampler at room temperature to evaluate the extract autosampler stability. Two levels of extracted QC samples (Low QC and High QC) were re-analyzed after approximately 8 hours in the freezer at approximately −20° C. to evaluate the extract freeze stability. Three aliquots of a dilution QC sample diluted 10-fold. Triplicate dilutions of the old stock solution (stored at approximately 4° C.) and new stock solutions prepared at intervals of two weeks and one month. Statistical calculations in the report tables were calculated from unrounded concentration values taken directly from the raw data. The concentration values were rounded for display purposes.
After extraction, the QC samples were analyzed and left in the autosampler for at least 71 hours, then re-injected onto the LC-MS/MS. Triplicate QC-Low and QC-High samples were analyzed for the autosampler stability determination. The CV % values for the QC-Low and QC-High stability samples are 7.5% and 6.4%, respectively. To calculate the RE %, the measured mean concentration was compared to the nominal concentration. The RE % values for the QC-Low and QC-High stability samples are 1.9% and 4.6%, respectively.

Series [4] is described as follows: Storage stability of quality control sample in human urine at −20° C. The series is classed as physicochemical. Conditions: storage temperature of −20° C. The procedure:
In method I, the mobile phase of liquid chromatography was run on 0.1% formic acid in acetonitrile, and the elution volume was 10 ul. In method II, the mobile phase was run in 0.1% formic acid in methanol/water (98/2, volume to volume), and the elution volume was 5 ul.

Structures are written as SMILES. Values joined by “and” are separate entries in the source; they are usually repeats but may differ in a detail not shown here. Equal values may be shown once. Read-outs that look alike come from different tables or passages of the source.

In the case of `CCC(C)(C)C(=O)[O-].[Na+]` [Sodium 2,2-Dimethylbutyrate], the “Stability after freeze/thaw cycles” value in series [1] is reported as “stable”. In series [1] (QC-High, nominal 40.0 μg/mL), the “Freeze/thaw cycle stability, Mean concentration” value amounted to 36.8 µg/mL; the “Freeze/thaw cycle stability, RE % (mean vs nominal)” value is listed as −8.1%; the “Freeze/thaw cycle stability, concentration found (replicate)” value is 36.2 μg/mL (2×) and 37.9 μg/mL. In series [1] (QC-Low, nominal 0.60 μg/mL), the “Freeze/thaw cycle stability, Mean concentration” value was 0.612 µg/mL; the “Freeze/thaw cycle stability, RE % (mean vs nominal)” value was 1.9%; the “Freeze/thaw cycle stability, concentration found (replicate)” value was 0.603 µg/mL and 0.620 µg/mL and 0.612 µg/mL. For the same molecule, in series [2] (human plasma, ambient bench top storage), the “Time stable on bench top” value came out at 22.5 h. Moreover, in series [2] (0.6 μg/mL), the “Bench top stability, Mean concentration” value is 0.671 µg/mL and the “Bench top stability, RE % (mean vs nominal)” value was determined as 11.8%. Besides, in series [2] (40 μg/mL), the “Bench top stability, Mean concentration” value was 38.7 µg/mL and the “Bench top stability, RE % (mean vs nominal)” value is recorded as −3.4%. The “Time stable in the extract in the autosampler” value in series [3] (ambient storage in the autosampler) is given as “at least 71 hours”. For the same molecule, in series [3] (QC-High, nominal 40.0 μg/mL), the “Extract autosampler stability, Mean concentration” value was found to be 41.8 µg/mL; the “Extract autosampler stability, RE % (mean vs nominal)” value came out at 4.6%; the “Extract autosampler stability, concentration found (replicate)” value was 42.9 µg/mL and 43.8 µg/mL and 38.8 µg/mL. Besides, in series [3] (QC-Low, nominal 0.60 μg/mL), the “Extract autosampler stability, Mean concentration” value was 0.611 µg/mL; the “Extract autosampler stability, RE % (mean vs nominal)” value was found to be 1.9%; the “Extract autosampler stability, concentration found (replicate)” value is 0.663 µg/mL and 0.575 µg/mL and 0.596 µg/mL. For the same molecule, in series [4], the “Time quality control sample is stable” value is “at least 111 days”.
